Active and inactive are the calls of the source. The calls are words filed in the database; no cut-off is given here.

In experiment [1] the target is Cyclin-dependent kinase 2/cyclin A (Homo sapiens) (UniProt P24941+P20248+P78396). Briefly: Inhibition of Cyclin-dependent kinase 2-cyclin A. The format is protein-complex assay.
In experiment [2] the target is T1, Cyclin-dependent kinase 4/cyclin D (Homo sapiens) (UniProt P11802+P24385+P30281+P30279). Briefly: Inhibition of Cyclin-dependent kinase 4-cyclin D. Type of experiment: protein-complex assay.
T1 sequence (P11802 whole entry, looked up): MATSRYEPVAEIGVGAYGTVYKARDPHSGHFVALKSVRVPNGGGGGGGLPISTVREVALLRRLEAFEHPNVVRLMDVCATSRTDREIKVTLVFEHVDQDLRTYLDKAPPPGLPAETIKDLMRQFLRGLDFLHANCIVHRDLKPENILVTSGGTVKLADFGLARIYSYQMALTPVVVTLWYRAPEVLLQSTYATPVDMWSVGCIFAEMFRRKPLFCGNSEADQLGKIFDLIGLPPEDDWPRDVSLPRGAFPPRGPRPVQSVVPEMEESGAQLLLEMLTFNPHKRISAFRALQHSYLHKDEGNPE
T1 sequence (P24385 whole entry, looked up): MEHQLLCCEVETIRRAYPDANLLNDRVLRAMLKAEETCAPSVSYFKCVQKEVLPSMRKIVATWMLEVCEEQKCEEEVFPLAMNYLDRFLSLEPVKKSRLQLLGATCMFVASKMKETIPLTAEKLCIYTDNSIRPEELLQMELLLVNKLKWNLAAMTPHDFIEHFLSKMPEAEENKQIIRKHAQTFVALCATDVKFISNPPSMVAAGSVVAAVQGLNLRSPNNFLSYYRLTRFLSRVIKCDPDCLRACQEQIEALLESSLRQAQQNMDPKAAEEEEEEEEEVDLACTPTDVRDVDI
T1 sequence (P30279 whole entry, looked up): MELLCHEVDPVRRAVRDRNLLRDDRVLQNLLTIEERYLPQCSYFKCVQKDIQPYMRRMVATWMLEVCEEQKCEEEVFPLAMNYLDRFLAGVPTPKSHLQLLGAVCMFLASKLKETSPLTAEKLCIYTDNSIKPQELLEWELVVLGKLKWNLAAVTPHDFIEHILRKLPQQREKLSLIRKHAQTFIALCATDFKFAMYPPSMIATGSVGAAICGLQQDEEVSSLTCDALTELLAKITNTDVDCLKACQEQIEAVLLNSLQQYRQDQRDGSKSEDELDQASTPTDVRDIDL
T1 sequence (P30281 whole entry, looked up): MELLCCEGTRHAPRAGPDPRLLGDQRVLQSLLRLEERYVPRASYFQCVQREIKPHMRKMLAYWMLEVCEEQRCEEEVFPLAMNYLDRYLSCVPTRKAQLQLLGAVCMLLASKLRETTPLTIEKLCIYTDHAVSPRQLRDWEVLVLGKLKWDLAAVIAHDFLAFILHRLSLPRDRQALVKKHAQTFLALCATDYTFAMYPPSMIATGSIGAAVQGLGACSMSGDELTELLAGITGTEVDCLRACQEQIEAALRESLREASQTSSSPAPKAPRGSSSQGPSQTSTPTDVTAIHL
Experiment [3] has as its target Cyclin-dependent kinase 2/cyclin E (Homo sapiens) (UniProt P24864+P24941+O96020). Particulars: Asteroidea.
Description: Inhibition of Cyclin-dependent kinase 2-cyclin E
Experiment [4] has as its target Cyclin-dependent kinase 1/cyclin B (Homo sapiens) (UniProt P06493+P14635+Q8WWL7+O95067). The conditions noted are these: Asteroidea.
Description: Inhibition of Cyclin-dependent kinase 1-cyclin B
Experiment [5] concerns the target T1, Cyclin-dependent kinase 4/cyclin D (Homo sapiens). Briefly: Inhibition of Cyclin-dependent kinase 4-cyclin D (Inactive). Type of experiment: protein-complex assay. The conditions noted are these: Asteroidea.

Turning to `CC(C)[C@H](CO)Nc1nc(Nc2ccc(C(=O)O)c(Cl)c2)c2ncn(C(C)C)c2n1`, in experiment [1], the ID50 is 6 nM.

As to `CC(C)n1c(=O)ccc2ncc(Nc3ccc(N4CCN(C)CC4)cc3)cc21`, the ID50 in experiment [1] was determined as 58 nM; in experiment [2], 45 nM; in experiment [3], 270 nM; in experiment [4], 675 nM. Take `O=C1Cc2c([nH]c3ccc(Br)cc23)-c2ccccc2N1`: the ID50 in experiment [4] came out at 35 nM. Regarding `Cn1cnc2c(NCc3ccccc3)nc(NCCO)nc21`, the IA entry in experiment [5] is “inactive”. In experiment [3], `CNS(=O)(=O)c1ccc(/N=N/c2c(O)[nH]c3ccc4ncsc4c23)cc1` yielded an ID50 of 3.5 nM. `CN1CC[C@H](c2c(O)cc(O)c3c(=O)cc(-c4ccccc4Cl)oc23)[C@H](O)C1` had an ID50 in experiment [1] of 100 nM.

For the compound `CNS(=O)(=O)Cc1ccc(/N=N/c2c(O)[nH]c3ccc4ncccc4c23)cc1`, the ID50 in experiment [3] was determined as 6.2 nM. On to `CCn1cnc2c(N)nc(N(c3cccc(Cl)c3)[C@@H]3CCCC[C@@H]3N)nc21`, for which the ID50 in experiment [2] is 29 nM; in experiment [3] it was 9 nM; in experiment [4], 16 nM.

Take `OCCCNc1cc(-c2ccnc(Nc3cccc(Cl)c3)n2)ccn1`: the results for the ID50 in experiment [3] and in experiment [4] were 50 nM and 20 nM, respectively.

Values taken from ChEMBL document CHEMBL1133166, “Cyclin-dependent kinase inhibitors: useful targets in cell cycle regulation” (J Med Chem, 2000).
